Source: patent US20050164951A1, “Inhibitors for the soluble epoxide hydrolase” (The Regents of the University of California, priority 2003, published 2005)
Like-named read-outs stand apart in the source and are kept apart here.

Tests used:
human sEH = target: T1, human sEH (Homo sapiens, UniProt P34913); test: Inhibition of recombinant human sEH, IC50 assay with 4-nitrophenyl-trans-2,3-epoxy-3-phenylpropyl carbonate as substrate; type: biochemical; conditions: for IC90: 0.24 μM enzyme
T1 construct: made in house; host or cells: baculovirus expression system
T1 sequence (P34913 1-555): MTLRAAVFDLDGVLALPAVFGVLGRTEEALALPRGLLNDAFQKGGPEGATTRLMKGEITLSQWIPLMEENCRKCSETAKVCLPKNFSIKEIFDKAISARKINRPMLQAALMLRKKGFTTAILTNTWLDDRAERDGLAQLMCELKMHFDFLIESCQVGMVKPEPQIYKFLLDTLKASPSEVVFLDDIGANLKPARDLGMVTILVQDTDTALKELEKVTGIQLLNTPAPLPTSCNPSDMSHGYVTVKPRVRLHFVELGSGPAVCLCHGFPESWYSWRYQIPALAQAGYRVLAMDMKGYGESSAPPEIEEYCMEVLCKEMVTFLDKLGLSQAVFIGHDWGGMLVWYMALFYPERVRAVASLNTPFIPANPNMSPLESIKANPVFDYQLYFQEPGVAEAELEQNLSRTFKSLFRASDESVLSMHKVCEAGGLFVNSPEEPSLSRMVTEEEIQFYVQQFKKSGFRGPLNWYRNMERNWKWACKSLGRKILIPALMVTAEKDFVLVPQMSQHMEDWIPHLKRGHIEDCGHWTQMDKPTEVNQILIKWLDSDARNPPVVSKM
Description: (§1) Assays were performed in triplicate. […] The curve was generated from at least three separate runs, each in triplicate, to obtain the standard deviation (SD) given in Table 1 thru Table 4.

mouse sEH = target: T2, mouse sEH (Mus musculus, UniProt P34914); test: Inhibition of recombinant mouse sEH, IC50 assay with 4-nitrophenyl-trans-2,3-epoxy-3-phenylpropyl carbonate as substrate; type: biochemical
T2 construct: made in house; host or cells: baculovirus expression system
T2 sequence (P34914 1-554): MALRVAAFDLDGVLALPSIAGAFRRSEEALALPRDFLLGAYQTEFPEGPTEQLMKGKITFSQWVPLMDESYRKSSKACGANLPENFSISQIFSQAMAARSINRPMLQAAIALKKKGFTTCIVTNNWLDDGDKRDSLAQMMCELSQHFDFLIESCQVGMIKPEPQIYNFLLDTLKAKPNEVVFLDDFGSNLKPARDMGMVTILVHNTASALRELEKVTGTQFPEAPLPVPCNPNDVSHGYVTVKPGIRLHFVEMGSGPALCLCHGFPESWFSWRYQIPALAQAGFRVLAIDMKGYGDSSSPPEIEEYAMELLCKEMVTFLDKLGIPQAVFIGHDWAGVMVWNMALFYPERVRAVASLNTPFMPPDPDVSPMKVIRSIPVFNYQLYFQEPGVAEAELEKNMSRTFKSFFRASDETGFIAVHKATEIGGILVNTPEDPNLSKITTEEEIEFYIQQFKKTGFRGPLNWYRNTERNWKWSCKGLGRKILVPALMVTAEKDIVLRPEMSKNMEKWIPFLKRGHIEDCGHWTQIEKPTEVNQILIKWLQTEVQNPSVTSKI
Description: as §1

[1] = Tables 17a and b, read-out: IC50 (μM) Human sEH
[2] = Tables 17a and b, read-out: IC50 (μM) Mouse sEH
[3] = Table 5, 5 min preincubation, pH 7.4, 30° C., means ± SD
[4] = Table 5, […] enzyme, 5 min preincubation, pH 7.4, 30° C., means ± SD, read-out: Human sEH IC50
[5] = Table 5, 0.12 μM enzyme, 5 min preincubation, pH 7.4, 30° C., means ± SD
[6] = Table 5, […] enzyme, 5 min preincubation, pH 7.4, 30° C., means ± SD, read-out: Mouse sEH IC50

Compound | IC50 (human sEH; [1]) [µM] | IC50 (mouse sEH; [2]) [µM] | also measured
C#CCCCCCCNC(=O)NC12CC3CC(CC(C3)C1)C2 [Compound 900] | 0.1 ± 0.01 | 0.05 ± 0.01 | 
O=C(CCCCCCOCCOCCOCc1ccccc1)NC12CC3CC(CC(C3)C1)C2 [Compound 959] |  |  | IC50 (human sEH; Table 8, established protocols, read-out: IC50 (μM) Human sEH): 0.11 ± 0.02 µM; IC50 (mouse sEH; Table 8, established protocols, read-out: IC50 (μM) Mouse sEH): 0.05 ± 0.01 µM
CCCCC(C)OC(=O)CCCNC(=O)NC12CC3CC(CC(C3)C1)C2 (stereo not shown) [Compound 943] | 0.13 ± 0.01 | 0.05 ± 0.01 | 
COc1ccc(CC(=O)NC2CCCCC2)cc1 [Compound 970] | 4.8 ± 0.01 | 1.4 ± 0.01 | 
O=C(O)CCCNC(=O)NC1CCCCC1 [Compound 632, 4-(3-Cyclohexyl-ureido)-butyric acid] |  |  | IC50 (human sEH; Table 1, […] enzyme, 5 min preincubation, pH 7.4, 30° C., [S] = 40 μM, means ± SD of three experiments, read-out: IC50 (μM) Human sEH): > 500 µM; IC50 (mouse sEH): > 500 µM
N[C@@H](CS)C(=O)O [Cysteine] |  |  | IC50 (mouse sEH; Table 10, unpurified reaction solutions used directly, theoretical concentration 10 mM, means ± SD of three experiments, read-out: Mouse sEH IC50): > 50 µM
CC(C)OCCOCCOCCCCCNC(=O)NC12CC3CC(CC(C3)C1)C2 [Compound 974] | 0.1 ± 0.01 | 0.05 ± 0.01 | 
CCCCC(C)OCCCCCNC(=O)NC12CC3CC(CC(C3)C1)C2 (stereo not shown) [Compound 954] |  | 0.05 ± 0.01 | 
CCOC(=O)COC(=O)CCCNC(=O)NC12CC3CC(CC(C3)C1)C2 [Compound 857] |  |  | IC90 (human sEH; [3]): 9 ± 2 µM; IC50 (human sEH; [4]): 0.39 ± 0.01 µM; IC90 (mouse sEH; [5]): 0.11 ± 0.01 µM; IC50 (mouse sEH; [6]): 0.05 ± 0.01 µM
CCCCCOC(=O)C1CCC(NC(=O)NC23CC4CC(CC(C4)C2)C3)CC1 (stereo not shown) [Compound 863] |  |  | IC50 (human sEH; Table 9, established protocols, read-out: IC50 (μM) Human sEH): 0.12 ± 0.01 µM; IC50 (mouse sEH; Table 9, established protocols, read-out: IC50 (μM) Mouse sEH): 0.05 ± 0.01 µM
C#CCOC(=O)CCCCCCCCCCCNC(=O)NC12CC3CC(CC(C3)C1)C2 [Compound 788, 1-(1-Adamantyl)-3-(11-propagyloxycarbonylundecyl)urea] |  |  | IC50 (human sEH; Table 4, […] enzyme, 5 min preincubation, pH 7.4, 30° C., means ± SD, read-out: IC50 (μM) Human sEH): 0.1 ± 0.01 µM
O=C(CCCc1ccccc1)NC1CCCCC1 [Compound 971] | 1.4 ± 0.01 | 0.11 ± 0.01 | 
CCCCCCCCC(NC(=O)CCCCCCCCCCCNC(=O)NC12CC3CC(CC(C3)C1)C2)C(=O)OC1C(CO)CC(O)C(O)C1O (stereo not shown) [Compound 1002] |  | 0.08 ± 0.01 | 
CC(O)c1cccc2c(S(=O)(=O)NCCOCCOCCCCCNC(=O)NC34CC5CC(CC(C5)C3)C4)cccc12 (stereo not shown) [Compound 976] | 0.1 ± 0.01 | 0.05 ± 0.01 | 
O=C(Cc1ccccc1)NC1CCCCC1 [Compound 968] | 14 ± 0.01 | 2.4 ± 0.01 | 
CN(C)c1cccc2c(S(=O)(=O)NCCNC(=O)NC34CC5CC(CC(C5)C3)C4)cccc12 [Compound 907] | 0.6 ± 0.01 | 0.4 ± 0.01 | 
CCCCCCCCCCNC(=O)NC1CCCCC1 [Compound 791, reference compound] |  |  | IC50 (human sEH; Table 2, […] enzyme, 5 min preincubation, pH 7.4, 30° C., means ± SD, read-out: IC50 (μM) Human sEH): 0.14 ± 0.01 µM; IC50 (mouse sEH; Table 2, […] enzyme, 5 min preincubation, pH 7.4, 30° C., means ± SD, read-out: IC50 (μM) Mouse sEH): 0.05 ± 0.01 µM
CCOC(=O)CCOC(=O)CCCNC(=O)NC12CC3CC(CC(C3)C1)C2 [Compound 876] |  |  | IC90 (human sEH; [3]): 9 ± 2 µM; IC50 (human sEH; [4]): 0.54 ± 0.05 µM; IC90 (mouse sEH; [5]): 0.63 ± 0.02 µM; IC50 (mouse sEH; [6]): 0.05 ± 0.01 µM
O=C(CCCNC(=O)NC1CCCCC1)NC(Cc1ccc(O)cc1)C(=O)O (stereo not shown) [Compound 632-Tyr, 2-[4-(3-Cyclohexyl-ureido)-butyrylamino]-3-(4-hydroxy-phenyl)-propionic acid] |  |  | inhibition potency (mouse sEH; Example 22, mouse sEH): hundreds of nanomolar range
CCCCC(CO)NC(=O)Nc1cccc(Cl)c1 (stereo not shown) [Compound 978] | 1.9 ± 0.01 | 8.4 ± 0.01 | 
Tyrosine |  |  | IC90 (mouse sEH; Table 11, unpurified analytical scale reaction solutions): 2.5 µM
CCNC(=O)NCCCN(C)C [1-ethyl-3-(3-dimethylamino)-propyl urea] |  |  | inhibition of sEH (mouse sEH; Example 21): not inhibitors of sEH
CCOCCOCCOC(=O)CCCNC(=O)NC12CC3CC(CC(C3)C1)C2 [Compound 1008] |  | 0.05 ± 0.01 | 
CCCCCCCCCCCCNC(=O)NC1CCN(c2ccc(S(=O)(=O)C(C)C)c3nonc23)C1 (stereo not shown) [Compound 996] | 0.12 ± 0.01 |  | 
